Data taken from ChEMBL document CHEMBL5042481, “Structure-Based Optimization of ML300-Derived, Noncovalent Inhibitors Targeting the Severe Acute Respiratory Syndrome Coronavirus 3CL Protease (SARS-CoV-2 3CLpro)” (J Med Chem, 2022).
The source made the active and inactive calls. The rule behind the calls is not given here.

How the values were obtained:
SARS-CoV-2 [1] = assay: Antiviral activity against SARS Cov-2 USA_WA1/2020 infected in Vero E6 cells expressing ACE2 reporter assessed as reduction in plaque formation at 0.21 to 50 uM and measured at 3 days post-infection by crystal violet staining based assay; type: functional, organism-based; settings: Severe acute respiratory syndrome coronavirus 2, USA_WA1/2020, Vero C1008, 72 h
SARS-CoV-2 [2] = assay: Antiviral activity against SARS Cov-2 USA_WA1/2020 infected in Vero E6 cells expressing ACE2 reporter assessed as inhibition of viral cytopathic effect measured after 68 hrs post infection by neutral red uptake assay; type: functional, organism-based; settings: Severe acute respiratory syndrome coronavirus 2, USA_WA1/2020, Vero C1008, 68 h
[3] = Apparent passive permeability in MDCK-MDR1 cells; type: ADME, cell-based, Canis lupus familiaris; settings: dog
CYP2C9 = CYP2C9 (Homo sapiens, UniProt P11712); assay: Inhibition of CYP2C9 (unknown origin) at 10 uM relative to control; type: ADME
CYP2D6 = CYP2D6 (Homo sapiens, UniProt P10635); assay: Inhibition of CYP2D6 (unknown origin) at 10 uM relative to control; type: ADME
[4] = Intrinsic clearance in rat liver microsomes; type: ADME, Microsome; settings: read-out: CLH
[5] = Protein binding in human plasma assessed as unbound fraction; type: ADME, cell-free
[6] = Intrinsic clearance in human liver microsomes; type: ADME, Microsome; settings: read-out: CLH
[7] = Intrinsic clearance in human liver S9 fraction at 25 uM incubated for 1 hr in presence of NADPH by LC-MS/MS analysis; type: ADME, subcellular; settings: read-out: CLH
CYP3A4 = CYP3A4 (Homo sapiens, UniProt P08684); assay: Inhibition of CYP3A4 (unknown origin) at 10 uM relative to control; type: ADME
[8] = Protein binding in rat plasma assessed as unbound fraction; type: ADME, cell-free
[9] = tested on: Severe acute respiratory syndrome coronavirus 2; settings: dose microM <=100, time 30.0 min
[10] = tested on: Severe acute respiratory syndrome-related coronavirus; settings: 1, dose microM <=100, time 30.0 min
SARS-CoV-2 [11] = assay: Cytotoxicity against SARS CoV-2 infected Vero E6 cells assessed as reduction in cell viability; type: toxicity; settings: chlorocebus sabaeus, vero c1008

Sequence of CYP2C9 (P11712 whole entry): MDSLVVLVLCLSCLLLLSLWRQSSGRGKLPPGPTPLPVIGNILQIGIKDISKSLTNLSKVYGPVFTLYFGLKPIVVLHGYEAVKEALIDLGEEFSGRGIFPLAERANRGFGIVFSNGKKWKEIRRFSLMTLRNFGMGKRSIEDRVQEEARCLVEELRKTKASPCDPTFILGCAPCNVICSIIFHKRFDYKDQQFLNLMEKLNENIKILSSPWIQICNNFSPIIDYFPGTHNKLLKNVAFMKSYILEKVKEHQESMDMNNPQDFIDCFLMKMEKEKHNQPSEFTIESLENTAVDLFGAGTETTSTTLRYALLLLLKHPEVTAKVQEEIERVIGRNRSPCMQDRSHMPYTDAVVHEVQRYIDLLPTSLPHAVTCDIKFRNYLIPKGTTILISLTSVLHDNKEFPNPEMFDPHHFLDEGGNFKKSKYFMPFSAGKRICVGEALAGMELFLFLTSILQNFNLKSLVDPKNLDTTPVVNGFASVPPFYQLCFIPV
Sequence of CYP3A4 (P08684 whole entry): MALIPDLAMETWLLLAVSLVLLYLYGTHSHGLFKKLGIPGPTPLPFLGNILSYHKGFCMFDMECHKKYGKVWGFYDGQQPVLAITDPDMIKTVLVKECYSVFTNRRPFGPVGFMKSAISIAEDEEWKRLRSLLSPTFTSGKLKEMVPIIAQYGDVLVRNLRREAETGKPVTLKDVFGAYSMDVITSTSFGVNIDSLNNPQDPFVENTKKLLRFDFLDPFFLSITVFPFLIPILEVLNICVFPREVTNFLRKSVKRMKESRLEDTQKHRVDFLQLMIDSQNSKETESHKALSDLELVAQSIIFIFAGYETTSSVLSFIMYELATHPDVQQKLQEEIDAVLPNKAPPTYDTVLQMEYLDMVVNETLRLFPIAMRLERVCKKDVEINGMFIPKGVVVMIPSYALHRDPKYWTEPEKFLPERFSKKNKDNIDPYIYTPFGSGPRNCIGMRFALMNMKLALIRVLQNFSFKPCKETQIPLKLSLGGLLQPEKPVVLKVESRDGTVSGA
Sequence of CYP2D6 (P10635 whole entry): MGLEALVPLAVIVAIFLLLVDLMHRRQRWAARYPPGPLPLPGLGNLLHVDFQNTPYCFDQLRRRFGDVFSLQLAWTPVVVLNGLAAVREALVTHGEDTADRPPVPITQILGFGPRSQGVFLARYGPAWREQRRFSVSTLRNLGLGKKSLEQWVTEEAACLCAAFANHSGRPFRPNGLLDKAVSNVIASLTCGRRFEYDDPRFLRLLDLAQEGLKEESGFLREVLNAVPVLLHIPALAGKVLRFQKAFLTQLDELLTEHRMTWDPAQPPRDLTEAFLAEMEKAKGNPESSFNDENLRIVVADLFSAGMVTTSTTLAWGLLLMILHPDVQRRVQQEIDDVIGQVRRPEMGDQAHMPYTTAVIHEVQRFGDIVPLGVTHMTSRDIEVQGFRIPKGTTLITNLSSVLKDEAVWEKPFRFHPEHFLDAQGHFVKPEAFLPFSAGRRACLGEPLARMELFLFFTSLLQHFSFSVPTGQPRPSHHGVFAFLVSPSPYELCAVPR

Question: What does the source list for `O=C(Cn1nnc2ccccc21)N(Cc1cccc(Cl)c1)c1ccc(-c2ccc[nH]c2=O)cc1`?
Answer: EC50 (SARS-CoV-2 [1]): 16.7 µM; EC50 (SARS-CoV-2 [2]): 8.77 µM

Question: With `O=C(Cn1nnc2ccccc21)N(Cc1cccc(Cl)c1)c1ccc(-c2cn[nH]c2)cc1` as the compound, how does the Papp [3] read?
Answer: 39.4 ×10⁻⁶ cm/s

Question: What about the EC50 (SARS-CoV-2 [1]) of the same compound?
Answer: 3.31 µM

Question: And the inhibition at 10 µM (CYP2C9)?
Answer: 99%

Question: And the inhibition at 10 µM (CYP2D6)?
Answer: 63%

Question: What about the CLint scaled [4] of the same compound?
Answer: 5670 mL/min/kg

Question: And the fraction unbound [5]?
Answer: 0.001

Question: What about the CLint scaled [6] of the same compound?
Answer: 2620 mL/min/kg

Question: What about the EC50 (SARS-CoV-2 [2]) of the same compound?
Answer: 1.98 µM

Question: What about the CLint scaled at 25 µM [7] of the same compound?
Answer: 436 mL/min/kg

Question: And the inhibition at 10 µM (CYP3A4)?
Answer: 96%

Question: With `O=C(Cn1nnc2ccccc21)N(Cc1ccsc1)c1ccc(-c2c[nH]cn2)cc1` as the compound, how does the EC50 (SARS-CoV-2 [1]) read?
Answer: 1.75 µM

Question: And the fraction unbound [5]?
Answer: 0.01

Question: And the EC50 (SARS-CoV-2 [2])?
Answer: 1.74 µM

Question: With `COc1cc(-c2cn[nH]c2)ccc1N(Cc1cccc(Cl)c1)C(=O)Cn1nnc2ccccc21` as the compound, how does the EC50 (SARS-CoV-2 [1]) read?
Answer: 2.01 µM

Question: What about the EC50 (SARS-CoV-2 [2]) of the same compound?
Answer: 2.3 µM

Question: For `O=C(Cn1nnc2ccccc21)N(Cc1cccc(Cl)c1)c1ccc(-c2cn[nH]c2)cn1`, which EC50 (SARS-CoV-2 [1]) is on record?
Answer: 3.39 µM

Question: And the EC50 (SARS-CoV-2 [2])?
Answer: 1.91 µM

Question: What does the source list for `O=C(Nc1ccc(N(Cc2ccsc2)C(=O)Cn2nnc3ccccc32)cc1)C1CC1`?
Answer: EC50 (SARS-CoV-2 [1]): 28.2 µM; EC50 (SARS-CoV-2 [2]): 19.9 µM

Question: With `COc1cc(N(Cc2cccc(Cl)c2)C(=O)Cn2nnc3ccccc32)ccc1-c1cn[nH]c1` as the compound, how does the EC50 (SARS-CoV-2 [1]) read?
Answer: 3.24 µM

Question: What about the EC50 (SARS-CoV-2 [2]) of the same compound?
Answer: 2.93 µM

Question: Which Papp [3] does the source give for `O=C(Cc1cccnc1)N(Cc1cccc(Cl)c1)c1ccc(-c2cn[nH]c2)cc1` here?
Answer: 61.8 ×10⁻⁶ cm/s

Question: What about the inhibition at 10 µM (CYP2C9) of the same compound?
Answer: 99%

Question: And the inhibition at 10 µM (CYP2D6)?
Answer: 55%

Question: And the CLint scaled [4]?
Answer: 3560 mL/min/kg

Question: What about the fraction unbound [5] of the same compound?
Answer: 0.004

Question: What about the fraction unbound [8] of the same compound?
Answer: 0.035

Question: What about the CLint scaled [6] of the same compound?
Answer: 981 mL/min/kg

Question: What about the CLint scaled at 25 µM [7] of the same compound?
Answer: 256 mL/min/kg

Question: What about the inhibition at 10 µM (CYP3A4) of the same compound?
Answer: 99%

Question: What does the source list for `O=C(Cn1nnc2ccccc21)N(Cc1ccsc1)c1ccc(-c2cccnc2)cc1`?
Answer: EC50 (SARS-CoV-2 [1]): 14.6 µM; inhibition [9]: Active; inhibition [10]: Active; EC50 (SARS-CoV-2 [2]): 12.1 µM

Question: For `O=C(Cc1cncnc1)N(Cc1cccc(Cl)c1)c1ccc(-c2cn[nH]c2)cc1`, which Papp [3] is on record?
Answer: 66.7 ×10⁻⁶ cm/s

Question: And the inhibition at 10 µM (CYP2C9)?
Answer: 92%

Question: And the inhibition at 10 µM (CYP2D6)?
Answer: 26%

Question: What about the CLint scaled [4] of the same compound?
Answer: 3300 mL/min/kg

Question: And the fraction unbound [5]?
Answer: 0.018

Question: What about the fraction unbound [8] of the same compound?
Answer: 0.11

Question: And the CLint scaled [6]?
Answer: 620 mL/min/kg

Question: And the CLint scaled at 25 µM [7]?
Answer: 145 mL/min/kg

Question: What about the inhibition at 10 µM (CYP3A4) of the same compound?
Answer: 88%

Question: Which EC50 (SARS-CoV-2 [1]) does the source give for `CCC(CC)COC(=O)[C@H](C)NP(=O)(OC[C@H]1O[C@@](C#N)(c2ccc3c(N)ncnn23)[C@H](O)[C@@H]1O)Oc1ccccc1` (single isomer, unassigned) here?
Answer: 0.43 µM

Question: What about the EC50 (SARS-CoV-2 [2]) of the same compound?
Answer: 0.34 µM

Question: With `O=C(Cn1nnc2ccccc21)N(Cc1cccc(Cl)c1)c1ccc(-c2c[nH]cn2)cc1` as the compound, how does the Papp [3] read?
Answer: 46.1 ×10⁻⁶ cm/s

Question: What about the inhibition at 10 µM (CYP2C9) of the same compound?
Answer: 100%

Question: And the inhibition at 10 µM (CYP2D6)?
Answer: 87%

Question: What about the CLint scaled [4] of the same compound?
Answer: 589 mL/min/kg

Question: And the fraction unbound [5]?
Answer: 0.007

Question: What about the fraction unbound [8] of the same compound?
Answer: 0.018

Question: And the CLint scaled [6]?
Answer: 141 mL/min/kg

Question: What about the CC50 (SARS-CoV-2 [11]) of the same compound?
Answer: > 50 µM

Question: What about the inhibition at 10 µM (CYP3A4) of the same compound?
Answer: 100%

Question: What does the source list for `O=C(Cn1nnc2ccccc21)N(Cc1cccc(Cl)c1)c1ccc(-c2cccnc2)cc1`?
Answer: EC50 (SARS-CoV-2 [1]): 11.1 µM; EC50 (SARS-CoV-2 [2]): 7.61 µM

Question: With `O=C(Cn1nnc2ccccc21)N(Cc1cccc(Cl)c1)c1ccc(-c2cn[nH]c2)nc1` as the compound, how does the EC50 (SARS-CoV-2 [1]) read?
Answer: 4.65 µM

Question: And the EC50 (SARS-CoV-2 [2])?
Answer: 3.81 µM

Question: With `O=C(Cn1nnc2ccccc21)N(Cc1ccsc1)c1ccc(-c2ccccc2)cc1` as the compound, how does the inhibition [9] read?
Answer: inactive

Question: And the inhibition [10]?
Answer: inactive
